According to patent US6737435B1, “Indole derivatives and their use as MCP-1 antagonist” (AstraZeneca AB, priority 1999, dated 2004):

Experiments:
THP-1 cells [1] = assay: hMCP-1 mediated chemotaxis; type: cell-based, human; details: biphasic response
Procedure: In vitro chemotaxis assays were performed using the human monocytic cell line THP-1. Cell migration through polycarbonate membranes was measured by enumerating those passing through either directly by Coulter counting or indirectly by use of a colourimetric viability assay measuring the cleavage of a tetrazolium salt by the mitochondrial respiratory chain (Scudiero D. A. et al. 1988, Cancer Res., 48, 4827-4833).
Chemoattractants were introduced into a 96-well microtitre plate which forms the lower well of a chemotaxis chamber fitted with a PVP-free 5 μm poresize polycarbonate adhesive framed filter membrane (NeuroProbe MB series, Cabin John, Md. 20818, USA) according to the manufacturer's instructions. […] The plate was incubated at 37° C. for 3 h and the absorbance of the soluble formazan product was read on a microtitre plate reader at 450 nm. The data was input into a spreadsheet, corrected for any random migration in the absence of chemoattractant and the average absorbance values, standard error of the mean, and significance tests were calculated. hMCP-1 induced concentration dependent cell migration with a characteristic biphasic response, maximal […]. […]

MCP-1 receptor B (CCR2B) = target: T1, MCP-1 receptor B (CCR2B) (Homo sapiens, UniProt P41597); assay: hMCP-1 receptor binding assay (125I-MCP-1, CHO-CCR2B cell membranes)
T1 construct: expressed in transfected cells; host or cells: CHO-K1 (clone 7, CHO-CCR2B), stably transfected with pCDNA3/CCR2B; membrane fragments
T1 sequence (P41597 1-360 isoform P41597-2): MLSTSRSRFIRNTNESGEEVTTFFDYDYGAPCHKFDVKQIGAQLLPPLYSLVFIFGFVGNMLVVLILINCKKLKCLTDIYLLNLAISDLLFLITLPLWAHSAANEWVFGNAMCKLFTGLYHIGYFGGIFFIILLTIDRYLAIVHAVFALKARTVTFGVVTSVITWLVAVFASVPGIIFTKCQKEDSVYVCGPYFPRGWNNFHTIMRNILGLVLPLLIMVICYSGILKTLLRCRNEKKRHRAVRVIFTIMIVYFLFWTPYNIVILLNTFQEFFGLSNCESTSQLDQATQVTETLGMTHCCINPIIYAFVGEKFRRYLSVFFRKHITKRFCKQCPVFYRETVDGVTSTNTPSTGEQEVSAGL
Source text: The MCP-1 receptor B (CCR2B) cDNA was cloned by PCR from THP-1 cell RNA using suitable oligonucleotide primers based on the published MCP-1 receptor sequences (Charo et al., 1994, Proc. Natl. Acad. Sci. USA, 91, 2752). The resulting PCR products were cloned into vector PCR-II™ (InVitrogen, San Diego, Calif.). Error free CCR2B cDNA was subcloned as a Hind III-Not I fragment into the eukaryotic expression vector pCDNA3 (InVitrogen) to generate pCDNA3/CC-CKR2A and pCDNA3/CCR2B respectively.
Linearised pCDNA3/CCR2B DNA was transfected into CHO-K1 cells by calcium phosphate precipitation (Wigler et al., 1979, Cell, 16, 777). Transfected cells were selected by the addition of Geneticin Sulphate (G418, Gibco BRL) at 1 mg/ml, 24 hours after the cells had been transfected. Preparation of RNA and Northern blotting were carried out as described previously (Needham et al., 1995, Prot. Express. Purific., 6, 134). CHO-K1 clone 7 (CHO-CCR2B) was identified as the highest MCP-1 receptor B expresser.
CHO-CCR2B cells were grown in DMEM supplemented with 10% foetal calf serum, 2 mM glutamine, 1×Non-Essential Amino Acids, 1×Hypoxanthine and Thymidine Supplement and Penicillin-Streptomycin (at 50 μg streptomycin/ml, Gibco BRL). Membrane fragments were prepared using cell lysis/differential centrifugation methods as described previously (Siciliano et al., 1990, J. Biol. Chem., 265, 19658). […]

THP-1 cells [2] = assay: MCP-1 mediated calcium flux in THP-1 cells; type: cell-based, human; details: stimulation of THP-1 cells with hMCP-1, FURA-2; read-out: EC50 of rise in [Ca2+]i
Procedure: The human monocytic cell line THP-1 was grown in a synthetic cell culture medium RPMI 1640 supplemented with 10% foetal calf serum, 6 mM glutamine and Penicillin-Streptomycin (at 50 μg streptomycin/ml, Gibco BRL). THP-1 cells were washed in HBSS (lacking Ca^2+ and Mg^2+)+1 mg/ml BSA and resuspended in the same buffer at a density of 3×10^6 cells/ml. The cells were then loaded with […] FURA-2/AM for 30 min at 37° C., washed twice in HBSS, and resuspended at 1×10^6 cells/ml. THP-1 cell suspension (0.9 ml) was added to a 5 ml disposable cuvette containing a magnetic stirrer bar and 2.1 ml of prewarmed (37° C.) HBSS containing 1 mg/ml BSA, 1 mM MgCl2 and 2 mM CaCl2. The cuvette was placed in a fluorescence spectrophotometer (Perkin Elmer, Norwalk, Conn.) and preincubated for 4 min at 37° C. with stirring. Fluorescence was recorded over 70 sec and cells were stimulated by addition of hMCP-1 to the cuvette after 10 sec. [Ca^2+]i was measured by excitation at 340 nm and 380 nm alternately and subsequent measurement of the intensity of the fluorescence emission at 510 nm.
where the Kd for FURA-2 Ca^2+ complex at 37° C. was taken to be 224 nm. […]

Which “concentration of maximal cell migration” value (THP-1 cells [1]) does the source give for “MCP-1: Human Monocyte Chemoattractant Protein-1, the chemokine ligand of the CCR2 receptor” here?
The value was 0.5-1.0 nm.

What about the IC50 (MCP-1 receptor B (CCR2B); cold competition, 100 pM 125I-labeled MCP-1, CHO-CCR2B membrane fragments) of the same substance?
The IC50 was 0.11 nM.

And the Kd (MCP-1 receptor B (CCR2B); equilibrium binding, CHO-CCR2B membrane fragments)?
The Kd was 0.12 nM.

And the EC50 (THP-1 cells [2])?
Its EC50 is ~2 nM.
